The series has as its system CCRIS mutagenicity, Ames/micronucleus/aberration tests. In words: CCRIS mutagenicity studies.
[1] abbreviates: Test System: AMES SALMONELLA TYPHIMURIUM, Strain/Indicator: TA98, Metabolic Activation: HAMSTER, LIVER, S-9, AROCLOR 1254, Method: STANDARD PLATE.
Setting [2] is: Test System: AMES SALMONELLA TYPHIMURIUM, Strain/Indicator: TA98, Metabolic Activation: NONE, Method: STANDARD PLATE.
Setting [3] is: Test System: AMES SALMONELLA TYPHIMURIUM, Strain/Indicator: TA98, Metabolic Activation: RAT, LIVER, S-9, AROCLOR 1254, Method: STANDARD PLATE.
Setting [4] is: Test System: AMES SALMONELLA TYPHIMURIUM, Strain/Indicator: TA100, Metabolic Activation: HAMSTER, LIVER, S-9, AROCLOR 1254, Method: STANDARD PLATE.
Setting [5] is: Test System: AMES SALMONELLA TYPHIMURIUM, Strain/Indicator: TA100, Metabolic Activation: NONE, Method: STANDARD PLATE.
[6] abbreviates: Test System: AMES SALMONELLA TYPHIMURIUM, Strain/Indicator: TA100, Metabolic Activation: RAT, LIVER, S-9, AROCLOR 1254, Method: STANDARD PLATE.
The mark [7] stands for this setting: Test System: AMES SALMONELLA TYPHIMURIUM, Strain/Indicator: TA1535, Metabolic Activation: HAMSTER, LIVER, S-9, AROCLOR 1254, Method: STANDARD PLATE.
Setting [8] is: Test System: AMES SALMONELLA TYPHIMURIUM, Strain/Indicator: TA1535, Metabolic Activation: NONE, Method: STANDARD PLATE.
Setting [9] is: Test System: AMES SALMONELLA TYPHIMURIUM, Strain/Indicator: TA1535, Metabolic Activation: RAT, LIVER, S-9, AROCLOR 1254, Method: STANDARD PLATE.
[10] abbreviates: Test System: AMES SALMONELLA TYPHIMURIUM, Strain/Indicator: TA1537, Metabolic Activation: HAMSTER, LIVER, S-9, AROCLOR 1254, Method: STANDARD PLATE.
[11] abbreviates: Test System: AMES SALMONELLA TYPHIMURIUM, Strain/Indicator: TA1537, Metabolic Activation: NONE, Method: STANDARD PLATE.
Where [12] appears, read: Test System: AMES SALMONELLA TYPHIMURIUM, Strain/Indicator: TA1537, Metabolic Activation: RAT, LIVER, S-9, AROCLOR 1254, Method: STANDARD PLATE.
Setting [13] is: Test System: AMES SALMONELLA TYPHIMURIUM, Strain/Indicator: TA98, Metabolic Activation: NONE, Method: PREINCUBATION
The mark [14] stands for this setting: Test System: AMES SALMONELLA TYPHIMURIUM, Strain/Indicator: TA102, Metabolic Activation: NONE, Method: STANDARD PLATE.

The source made the active and inactive calls. How the calls were made is not given here.

As to `CC(=O)O[C@@H]1[C@@H](O)[C@H](O[C@H]2[C@H](OC(=O)[C@H]3CC[C@@H]4[C@H](C3)O[C@@]3(C[C@H](OC(=O)/C=C/c5ccccc5)[C@H](C)CO3)[C@]43CO3)O[C@H](C)[C@@H](O)[C@@H]2OC(C)=O)O[C@H](C)[C@H]1O`, the mutagenic call was “inactive; negative” under setting [1]; “inactive; negative” under setting [2]; “inactive; negative” under setting [3]; “inactive; negative” under setting [4]; “inactive; negative” under setting [5]; “inactive; negative” under setting [6]. The mutagenic call is “inactive; negative” under setting [7]; “inactive; negative” under setting [8]; “inactive; negative” under setting [9]; “inactive; negative” under setting [10]; “inactive; negative” under setting [11]; “inactive; negative” under setting [12].
As for `Oc1ccc(Cl)c(Cl)c1`, the mutagenic call runs as follows: (Test System: AMES SALMONELLA TYPHIMURIUM, Strain/Indicator: TA98, Metabolic Activation: HAMSTER, LIVER, S-9, AROCLOR 1254, Method: PREINCUBATION) “inactive; negative”; under setting [13], “inactive; negative”; (Test System: AMES SALMONELLA TYPHIMURIUM, Strain/Indicator: TA98, Metabolic Activation: RAT, LIVER, S-9, AROCLOR 1254, Method: PREINCUBATION) “inactive; negative”; (Test System: AMES SALMONELLA TYPHIMURIUM, Strain/Indicator: TA100, Metabolic Activation: HAMSTER, LIVER, S-9, AROCLOR 1254, Method: PREINCUBATION) “inactive; negative”; (Test System: AMES SALMONELLA TYPHIMURIUM, Strain/Indicator: TA100, Metabolic Activation: NONE, Method: PREINCUBATION) “inactive; negative”; (Test System: AMES SALMONELLA TYPHIMURIUM, Strain/Indicator: TA100, Metabolic Activation: RAT, LIVER, S-9, AROCLOR 1254, Method: PREINCUBATION) “inactive; negative”. Moreover, the mutagenic call (Test System: AMES SALMONELLA TYPHIMURIUM, Strain/Indicator: TA1535, Metabolic Activation: HAMSTER, LIVER, S-9, AROCLOR 1254, Method: PREINCUBATION) was “inactive; negative”; the mutagenic call (Test System: AMES SALMONELLA TYPHIMURIUM, Strain/Indicator: TA1535, Metabolic Activation: NONE, Method: PREINCUBATION) was “inactive; negative”; the mutagenic call (Test System: AMES SALMONELLA TYPHIMURIUM, Strain/Indicator: TA1535, Metabolic Activation: RAT, LIVER, S-9, AROCLOR 1254, Method: PREINCUBATION) was “inactive; negative”; the mutagenic call (Test System: AMES SALMONELLA TYPHIMURIUM, Strain/Indicator: TA1537, Metabolic Activation: HAMSTER, LIVER, S-9, AROCLOR 1254, Method: PREINCUBATION) is “inactive; negative”; the mutagenic call (Test System: AMES SALMONELLA TYPHIMURIUM, Strain/Indicator: TA1537, Metabolic Activation: NONE, Method: PREINCUBATION) was “inactive; negative”; the mutagenic call (Test System: AMES SALMONELLA TYPHIMURIUM, Strain/Indicator: TA1537, Metabolic Activation: RAT, LIVER, S-9, AROCLOR 1254, Method: PREINCUBATION) is “inactive; negative”.
As for `ONc1ccccc1`, the mutagenic call runs as follows: (Test System: AMES SALMONELLA TYPHIMURIUM, Strain/Indicator: TA100, Metabolic Activation: RAT, LIVER, S-9, PCB, Method: PREINCUBATION) “active; positive”; (Test System: E. COLI, Strain/Indicator: WP2 UVRA, Metabolic Activation: NONE, Method: FLUCTUATION TEST) “inactive; negative”.
For `COC(=O)/C(C#N)=C/c1ccc(Br)o1`, under setting [13], the mutagenic call was “inactive; negative”.
For the molecule `CN1CCN(c2ccc3nc(-c4ccc5nc(-c6ccc(O)cc6)[nH]c5c4)[nH]c3c2)CC1`, the mutagenic call by setting is: under setting [2], “inactive; negative”; under setting [5], “inactive; negative”; under setting [14], “inactive; negative”.
For the molecule `O=[N+]([O-])c1ccc(-c2ccc([N+](=O)[O-])cc2)cc1`, the mutagenic call runs as follows: (Test System: AMES SALMONELLA TYPHIMURIUM, Strain/Indicator: TA98(1,8-DNP6), Metabolic Activation: NONE, Method: STANDARD PLATE) “active; positive”; (Test System: AMES SALMONELLA TYPHIMURIUM, Strain/Indicator: TA98(NR), Metabolic Activation: NONE, Method: STANDARD PLATE) “inactive; negative”; under setting [13], “active; positive”; under setting [2], “active; positive”; (Test System: AMES SALMONELLA TYPHIMURIUM, Strain/Indicator: TA98, Metabolic Activation: RAT, LIVER, S-9, PCB (10%), Method: PREINCUBATION) “active; positive”.
As for `O=C(O)/C(Cl)=C(\C(=O)O)C(Cl)Cl`, the mutagenic call was “inactive; negative” (Test System: AMES SALMONELLA TYPHIMURIUM, Strain/Indicator: TA97, Metabolic Activation: NONE, Method: STANDARD PLATE); “inactive; negative” (Test System: AMES SALMONELLA TYPHIMURIUM, Strain/Indicator: TA97, Metabolic Activation: RAT, LIVER, S-9, PHENOBARBITAL, Method: STANDARD PLATE); “inactive; negative” under setting [2]; “inactive; negative” under setting [3]; “inactive; negative” (Test System: AMES SALMONELLA TYPHIMURIUM, Strain/Indicator: TA98, Metabolic Activation: RAT, LIVER, S-9, PHENOBARBITAL, Method: STANDARD PLATE); “inactive; negative” under setting [6]. The mutagenic call is “inactive; negative” (Test System: AMES SALMONELLA TYPHIMURIUM, Strain/Indicator: TA100, Metabolic Activation: RAT, LIVER, S-9, PHENOBARBITAL, Method: STANDARD PLATE); “inactive; negative” under setting [14]; “inactive; negative” (Test System: AMES SALMONELLA TYPHIMURIUM, Strain/Indicator: TA102, Metabolic Activation: RAT, LIVER, S-9, AROCLOR 1254, Method: STANDARD PLATE).
As for `CCCOS(=O)(=O)OCCC`, the mutagenic call (End Point: In vitro micronucleus, Test System: Chinese Hamster Ovary (CHO-WBL) cells, Metabolic Activation: None) is “active; positive (p<0.01)”.
Turning to `Nc1ccc(S(=O)(=O)Nc2nccs2)cc1`, the mutagenic call is, setting by setting: under setting [1], “inactive; negative”; under setting [2], “inactive; negative”; under setting [3], “inactive; negative”; under setting [4], “inactive; negative”; under setting [5], “inactive; negative”; under setting [6], “inactive; negative”. For the same molecule, the mutagenic call is, setting by setting: under setting [7], “inactive; negative”; under setting [8], “inactive; negative”; under setting [9], “inactive; negative”; under setting [10], “inactive; negative”; under setting [11], “inactive; negative”; under setting [12], “inactive; negative”. Moreover, the mutagenic call (Test System: AMES SALMONELLA TYPHIMURIUM, Strain/Indicator: TA1538, Metabolic Activation: HAMSTER, LIVER, S-9, AROCLOR 1254, Method: STANDARD PLATE) is “inactive; negative”; the mutagenic call (Test System: AMES SALMONELLA TYPHIMURIUM, Strain/Indicator: TA1538, Metabolic Activation: NONE, Method: STANDARD PLATE) was “inactive; negative”; the mutagenic call (Test System: AMES SALMONELLA TYPHIMURIUM, Strain/Indicator: TA1538, Metabolic Activation: RAT, LIVER, S-9, AROCLOR 1254, Method: STANDARD PLATE) is “inactive; negative”; the mutagenic call (Test System: MOUSE LYMPHOMA, Strain/Indicator: L5178Y (TK+/TK-), Metabolic Activation: NONE, Method: SUSPENSION/PLATE) was “inactive; negative. reevaluation of results: negative”; the mutagenic call (Test System: MOUSE LYMPHOMA, Strain/Indicator: L5178Y (TK+/TK-), Metabolic Activation: RAT, LIVER, S-9, AROCLOR 1254, Method: SUSPENSION/PLATE) was “inactive; negative. reevaluation of results: negative”.

(Values after PubChem BioAssay AID1259407 (Chemical Carcinogenesis Research Information System (CCRIS), 2018).)
